System: HeLa cells
Test: Evaluation of ability to permeate cell membrane (uptake into cells, flow cytometry of Alexa Fluor 647 fluorescence)
Type: cell-based
Details: 1.5 μM sample solution, 37° C., 1 hour; ratio to fluorescent dye 1
Protocol: A DMSO solution of the synthesized peptide fluorescent conjugates 1, 4, and 5, and fluorescent dye 1 was diluted using a DMEM low-glucose culture solution to a concentration of 1.5 μM, the concentration of the DMSO contained was adjusted to 0.15%, and the resulting solution was used as a sample solution for a cell membrane permeability test.
HeLa cells were seeded in a 96-well cell culture plate 24 hours before peptide treatment (0.5×10^5 cells/well).
The medium of HeLa cells pre-cultured at 37° C. for 24 hours was replaced with a sample solution of the peptide fluorescent conjugates 1, 4, and 5 and the fluorescent dye 1, and the ability to permeate a cell membrane after culturing at 37° C. for 1 hour was evaluated. […] The collected cells were analyzed by flow cytometry (guava easyCyte (trademark) 8) measuring red 2 fluorescence (661/15 nm) for detecting the fluorescent dye (Alexa Fluor647) introduced into the peptide fluorescent conjugate.
Using sample solutions of the peptide fluorescent conjugates 1 and 2, TAT-Alexa, and the fluorescent dye 1 prepared in the same manner as in Test Example 1, the red 2 fluorescence (661/15 nm) was measured and analyzed by flow cytometry by the same procedure as in Test Example 1. […]

**Q.** “TAT-Alexa: Alexa Fluor 647 C2 Maleimide added to the terminal Cys of Cys-TAT(47-57), commercially available cell-penetrating peptide (YGRKKRRQRRR; N-terminal Cys with Alexa Fluor 647; C-terminal amide; printed: Tyr-Gly-Arg-Lys-Lys-Arg-Arg-Gln-Arg-Arg-Arg-)” was tested. Which “average value of the fluorescence intensities of Alexa Fluor 647 in cells (MFI) relative to cells treated with the fluorescent dye 1” value did it give?
**A.** Its value is “about double”.

— patent publication US20240287131A1, “PEPTIDE” (AGC Inc., priority 2021, published 2024)
